Measured values taken from patent USRE40387E1, “Pharmaceutical compositions, dosage forms and methods for oral administration of epothilones” (Bristol-Myers Squibb Company, priority 2001, dated 2008).

Molecular target: CYP2D6 (Homo sapiens, UniProt P10635)
Test: Inhibition of recombinant human CYP2D6 (deethylation of 3-cyano-7-ethoxycoumarin)
Assay type: in vitro ADME
Settings: recombinant human CYP isoform
Method: The ability of Compound (A) to inhibit the major human cytochrome P450s (CYPs) responsible for the metabolism of drugs was evaluated in vitro using recombinant human CYP isoforms. IC50 values for inhibition of deethylation of 3-cyano-7-ethoxycoumarin (CYP1A2, CYP2C9, CYP2C19, and CYP2D6) and for inhibition of dealkylation of benzoyl-resorufin (CYP3A4) were determined.

Sequence of CYP2D6 (P10635 whole entry): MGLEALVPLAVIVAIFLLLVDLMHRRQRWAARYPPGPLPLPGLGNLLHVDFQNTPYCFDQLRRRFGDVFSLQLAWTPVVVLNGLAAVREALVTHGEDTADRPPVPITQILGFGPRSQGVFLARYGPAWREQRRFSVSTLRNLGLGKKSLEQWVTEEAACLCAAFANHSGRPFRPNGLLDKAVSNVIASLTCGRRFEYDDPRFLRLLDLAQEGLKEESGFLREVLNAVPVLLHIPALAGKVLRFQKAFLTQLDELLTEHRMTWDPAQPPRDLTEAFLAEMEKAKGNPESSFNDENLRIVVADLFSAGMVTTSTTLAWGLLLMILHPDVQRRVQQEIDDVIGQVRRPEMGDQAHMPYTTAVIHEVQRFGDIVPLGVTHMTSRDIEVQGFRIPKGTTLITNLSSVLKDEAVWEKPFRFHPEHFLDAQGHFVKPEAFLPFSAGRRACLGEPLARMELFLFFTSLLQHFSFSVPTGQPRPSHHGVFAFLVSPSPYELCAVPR

SMILES: C/C(=C\c1csc(C)n1)[C@@H]1C[C@@H]2O[C@]2(C)CCC[C@H](C)[C@H](O)[C@@H](C)C(=O)C(C)(C)[C@@H](O)CC(=O)N1 (relative stereo) [Compound (A), [1S-[1R*,3R*(E),7R*,10S*,11R*,12R*,16S*]]-7,11-dihydroxy 8,8,10,12,16-pentamethyl-3-[1-methyl-2-(2-methyl-4-thiazolyl)ethenyl-4-aza-17-oxobicyclo[14.1.0]heptadecane-5,9-dione]
- inhibition of CYP2D6: did not inhibit
